Measurements as given in publication PMC7284918, “In-Depth Characterization of EpiIntestinal Microtissue as a Model for Intestinal Drug Absorption and Metabolism in Human” (Pharmaceutics, 2020).
Where two headings read alike, the source gives them in different places. Marks after values point to notes of the source that are not given here.

Legend:
[1] = system: EpiIntestinal microtissues; experiment: Intestinal first-pass availability in EpiIntestinal microtissues; format: in vitro ADME, human
Protocol: (§1) Compounds were diluted in culture media to a final concentration of 10 µM and added to the apical (donor) compartment (total volume: 100 µL for EpiIntestinal and 200 µL for Caco-2). After the incubation at 37 °C for 2, 4, 6, and 24 h, samples (50 µL) were taken from the basal (receiver) compartment (total volume: 5000 µL for EpiIntestinal and 800 µL for Caco-2). After the last timepoint, samples from the donor compartments and the cell lysates were also collected. Compound concentrations in the samples were determined by HPLC-MS/MS (Section 2.3).
(§2) GI first-pass availability of the tested compounds was expressed as fraction (%) of the total amount of a compound added to the donor compartment recovered in the receiver compartment.

Caco-2 cells [2] = experiment: Intestinal first-pass availability in Caco-2; format: in vitro ADME, human; conditions: Caco-2
Protocol: as §1, §2

[3] = Clinical pharmacokinetic data and calculated Fa × Fg in human; format: in vivo; conditions: calculated from clinical pharmacokinetic data (Section 2.8, Table 2)
Text: A set of 12 marketed drugs are selected for the evaluation of EpiIntestinal microtissues.

[4] = Intestinal first-pass availability in EpiIntestinal microtissues; format: in vitro ADME, human; conditions: human, 10 µM apical
Protocol: as §1, §2

[5] = human, cited from earlier work
[6] = system: EpiIntestinal microtissues; experiment: Metabolite identification in EpiIntestinal microtissues; format: in vitro ADME, human; conditions: 10 µM, peak areas at end of incubation
Protocol: (§3) Raloxifene or ezetimibe (10 µM) in culture media was added to the apical compartment of EpiIntestinal microtissues or incubated with cryopreserved human intestinal mucosa (HIM). […] Analysis was performed on a LC-MS system containing a Vanquish UPLC (ThermoFisher Scientific, San Jose, CA, USA) coupled to an Orbitrap FusionTribrid high resolution mass spectrometer (ThermoFisher Scientific). Structure elucidation was based on exact mass measurements in combination with the interpretation of fragment spectra.

[7] = system: human intestinal mucosa (HIM); experiment: Metabolite identification in cryopreserved human intestinal mucosa (HIM); format: in vitro ADME; conditions: 10 µM, peak areas at end of incubation
Protocol: as §3

CYP3A4 = conditions: Caco-2
Protocol: (§4) For measurements of DME activities in EpiIntestinal microtissues and Caco-2 cells, both were cultured in 96-well Transwell inserts. Drugs (Table 1) were dissolved in the respective solvent at 200x concentration and diluted in a pre-warmed transport buffer. Diluted substrate solution was applied to the apical (100 µL) and basal (250 µL) compartment of the Transwell and incubated at 37 °C and 5% CO2 and 60 rpm continuous shaking. DME activities were determined by monitoring metabolite formation in basal compartment over time (0, 0.5, 1, 2, 3 and 4 h) with LC-MS/MS. […] Chromatographic separation of samples was performed on YMC Triart C18 (1.9 µm, 30 × 2 mm; YMC Europe, Dinslaken, Germany) LC analytical column. Quantification of all metabolites listed in Table 1 was achieved by the use of calibration curves for the individual metabolites with appropriate concentration ranges.
(§5) A total of 10 µL of the incubation sample were diluted with 90 µL of water containing 10–20% ACN or methanol, 0.1% formic acid and the respective internal standard. To analyze the intracellular metabolite concentration, cells on Transwell inserts were washed twice with ice-cold PBS and stored at −80 °C for 20 min. Afterwards, 150 µL 50% ACN diluted with transport buffer was added to the cells and incubated at room temperature for 30 min. Cell lysate was transferred to a fresh 96-well plate and centrifuged at 4 °C, 4000 rpm for 10 min. Subsequently, 10 µL of the supernatant were diluted with 90 µl water containing 10–20% ACN or methanol, 0.1% formic acid and the respective internal standard. A total of 2 µL sample was injected into the LC-MS/MS system operated with an electrospray ionization source.

Caco-2 cells [8] = experiment: Bidirectional permeability assay in Caco-2; format: in vitro ADME, human; conditions: Ko-143 3 µM, zosuquidar 5 µM
[9] = system: EpiIntestinal microtissues; experiment: Bidirectional permeability assay in EpiIntestinal microtissues; format: in vitro ADME, human; conditions: Ko-143 3 µM, zosuquidar 5 µM
Protocol: Caco-2 cells were obtained from Leibniz Institute DSMZ-German Collection of Microorganisms and Cell Cultures (Braunschweig, Germany) and cultured in DMEM containing 10% FCS, 1% NEAA, 2 mM Glutamin, 100 U/mL Penicillin and 100 µg/mL Streptomycin. […] EpiIntestinal microtissues were obtained from MatTek (Bratislav, Slovakia) and cultured according to the manufacturer’s instruction (24-well format for bidirectional permeability assays and GI firstpass availability assays and 96-well format for screening of DME activities).
Bidirectional permeability assays were performed as described previously. […] In indicated experiments, inhibitors were added to both compartments. Cells were incubated with the compounds for up to 2 h. Samples from the opposite compartment were taken at different timepoints. […] Prior to bioanalysis samples were spiked with internal standard solution and diluted with acetonitrile (ACN) for protein precipitation. Measurement was operated in multiple reaction monitoring (MRM) mode. Quantification was performed using external calibration. Apparent permeability coefficients in the apical to basal direction (Papp,AB) and in the basal to apical direction (Papp,BA) and efflux were calculated as follows Papp,AB=QAB/(C0×s×t) Papp,BA=QBA/(C0×s×t) Efflux=Papp,BA/Papp,AB where Q is the amount of compound recovered in the receiver compartment after the incubation time t, C0 the initial compound concentration given to the donor compartment, and s the surface area of the Transwell inserts. Efflux ratio is calculated as the quotient of Papp,BA to Papp,AB. […] In addition, Transepithelial electrical resistance (TEER) values are measured for each plate before the permeability assay and total recovery in donor and receiver compartments was determined for each compound. All these parameters (efflux of apafant, Papp values of the low permeable compound, TEER values, and total recovery) are used to ensure the quality of the assays.

[10] = Intestinal first-pass availability in Caco-2; format: in vitro ADME, human; conditions: human, Caco-2, Caco-2, 10 µM apical, read-out: Recovery in basal/receiver compartment after 24 h
Protocol: as §1, §2

in vitro = conditions: human, plasma
Text: Blood CLb can be converted from plasma clearance CLp with the blood-to-plasma ratio RB: CLb=CLp/RB

CYP1A2 [11] = target: T1, CYP1A2 (Homo sapiens, UniProt P05177)
T1 sequence (P05177 1-516): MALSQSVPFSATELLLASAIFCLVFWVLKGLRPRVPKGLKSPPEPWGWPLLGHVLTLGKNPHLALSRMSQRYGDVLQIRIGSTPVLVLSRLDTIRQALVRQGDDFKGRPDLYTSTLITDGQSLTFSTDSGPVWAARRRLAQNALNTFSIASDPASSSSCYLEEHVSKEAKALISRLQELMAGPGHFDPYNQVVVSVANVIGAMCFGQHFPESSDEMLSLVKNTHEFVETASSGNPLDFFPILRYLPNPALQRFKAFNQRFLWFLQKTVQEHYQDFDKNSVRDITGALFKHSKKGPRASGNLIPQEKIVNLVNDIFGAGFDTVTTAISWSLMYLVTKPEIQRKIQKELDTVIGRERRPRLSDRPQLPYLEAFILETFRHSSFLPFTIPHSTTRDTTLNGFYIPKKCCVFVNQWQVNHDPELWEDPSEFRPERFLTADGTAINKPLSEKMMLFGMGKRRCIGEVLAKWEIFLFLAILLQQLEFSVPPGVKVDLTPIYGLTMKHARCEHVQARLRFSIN
Protocol: as §4, §5

CYP1A2 [12] = target: T1, CYP1A2; remark: listed apart in the source
Protocol: as §4
A total of 10 µL of the incubation sample were diluted with 90 µL of water containing 10–20% ACN or methanol, 0.1% formic acid and the respective internal standard. To analyze the intracellular metabolite concentration, cells on Transwell inserts were washed twice with ice-cold PBS and stored at −80 °C for 20 min. Afterwards, 150 µL 50% ACN diluted with transport buffer was added to the cells and incubated at room temperature for 30 min. […]

[13] = EpiIntestinal microtissues, GI firstpass availability, read-out: Recovery in Basal Comp. @ 24h (%)
[14] = clinical, ref Prescription information at fda.gov

SMILES: COc1ccc(CCN2CCC(Nc3nc4ccccc4n3Cc3ccc(F)cc3)CC2)cc1 [Astemizole]
- Availability in the receiver compartment on co-incubation with CYP2J2 inhibitor ([1]; 10 µM apical, Ebastein (50 µM)): increased
- Availability in the receiver compartment on co-incubation with CYP2J2 inhibitor (Caco-2 cells [2]; 10 µM apical, Ebastein (50 µM)): increased

SMILES: CC(C)(C)NC(=O)[C@@H]1C[C@@H]2CCCC[C@@H]2CN1C[C@@H](O)[C@H](Cc1ccccc1)NC(=O)[C@H](CC(N)=O)NC(=O)c1ccc2ccccc2n1 [Saquinavir]
- Fa × Fg in Human (%) [3]: 25%
- recovery at 24 h, 10 µM [4, 13]: 18%
- F (total oral availability) ([5]; clinical): 0.04 [8]
- fe (fraction of renal excretion) [5, 14]: 0.01 *

SMILES: O=C1[C@H](CC[C@H](O)c2ccc(F)cc2)[C@@H](c2ccc(O)cc2)N1c1ccc(F)cc1 [Ezetimibe]
- Parent (% of parent drug at T0) [6]: 8.4 % of parent drug at T0
- Parent (% of parent drug at T0) [7]: 40.3 % of parent drug at T0

SMILES: C[C@]12CC[C@H]3[C@@H](CCC4=CC(=O)CC[C@@]43C)[C@@H]1CC[C@@H]2O [Testosterone]
- Intracellular Metabolite (% of Total) (CYP3A4; CYP3A4/Testosterone, metabolite 6β-OH-Testosterone): BLQ

SMILES: CC(C)NCC(O)COc1ccc(CC(N)=O)cc1 (centres unmarked) [Atenolol]
- Fa × Fg in Human (%) [3]: 50%
- recovery at 24 h, 10 µM [4, 13]: 86%

SMILES: CCN(CC)CC#CCOC(=O)C(O)(c1ccccc1)C1CCCCC1 (centres unmarked) [Oxybutynin]
- Fa × Fg in Human (%) [3]: 9%
- F (total oral availability) ([5]; clinical): 0.06 [8]
- fe (fraction of renal excretion) [5, 14]: 0 *
- CLp (plasma clearance) ([5]; in vivo): 5.1 [15] mL/min/kg

SMILES: O[C@@H](COc1cccc2ncccc12)CN1CCN([C@@H]2c3ccccc3[C@@H]3[C@H](c4ccccc42)C3(F)F)CC1 [zosuquidar]
- Effect of inhibitor on the efflux of rosuvastatin (Caco-2 cells [8]): minor effect
- Effect of inhibitor on the efflux of rosuvastatin [9]: minor effect

SMILES: CC(C)(C)NC(=O)[C@@H]1CN(Cc2cccnc2)CCN1C[C@@H](O)C[C@@H](Cc1ccccc1)C(=O)N[C@H]1c2ccccc2C[C@H]1O [Indinavir]
- Fa × Fg in Human (%) [3]: 100%
- recovery at 24 h, 10 µM [4, 13]: 53%
- F (total oral availability) ([5]; clinical): 0.6 [8]
- fe (fraction of renal excretion) ([5]; clinical): 0.085 [16]

SMILES: Cc1ncc2n1-c1ccc(Cl)cc1C(c1ccccc1F)=NC2 [Midazolam]
- Fa × Fg in Human (%) [3]: 59%
- recovery at 24 h, 10 µM ([4]; with CYP3A4 inhibitor CYP3cide (1 µM), read-out: Recovery in basal/receiver compartment after 24 h): 75.9%
- recovery at 24 h, 10 µM [4, 13]: 47%
- recovery at 24 h, 10 µM ([4]; EpiIntestinal microtissues, no inhibitor, read-out: Recovery in basal/receiver compartment after 24 h): 46.7%
- 1-hydroxymidazolam (CYP3A4-selective metabolite) detected ([1]; midazolam 10 µM apical, no inhibitor): substantial amount
- recovery at 24 h, 10 µM ([10]; no inhibitor): 81%
- recovery at 24 h, 10 µM ([10]; with CYP3A4 inhibitor CYP3cide (1 µM)): 87.9%
- 1-hydroxymidazolam (CYP3A4-selective metabolite) detected (Caco-2 cells [2]; midazolam 10 µM apical): negligible amount
- Intracellular Metabolite (% of Total) (CYP3A4; CYP3A4/Midazolam, metabolite 1-OH-Midazolam): BLQ
- Enzyme Activities Mean/SD (CYP3A4; CYP3A4/Midazolam, rate of 1-OH-Midazolam formation in supernatant): BLQ
- blood plasma ratio (in vitro): 0.64
- F (total oral availability) ([5]; clinical): 0.4 [8]
- fe (fraction of renal excretion) ([5]; clinical): 0 [16]

SMILES: CC(C)c1c(C(=O)Nc2ccccc2)c(-c2ccccc2)c(-c2ccc(F)cc2)n1CC[C@@H](O)C[C@@H](O)CC(=O)O [Atorvastatin]
- recovery at 24 h, 10 µM [4, 13]: 43%

SMILES: O=C1CC2(CCCC2)CC(=O)N1CCCCN1CCN(c2ncccn2)CC1 [Buspirone]
- Fa × Fg in Human (%) [3]: 70%
- recovery at 24 h, 10 µM [4, 13]: 60%
- CLp (plasma clearance) ([5]; clinical): 28.3 [8] mL/min/kg
- fe (fraction of renal excretion) ([5]; clinical): 0.45 [19]

SMILES: O=C(c1ccc(OCCN2CCCCC2)cc1)c1c(-c2ccc(O)cc2)sc2cc(O)ccc12 [Raloxifene]
- Parent (% of parent drug at T0) [6]: 2.4 % of parent drug at T0
- Parent (% of parent drug at T0) [7]: 33.2 % of parent drug at T0

SMILES: COC(=O)C1=C(C)NC(C)=C(C(=O)OC)C1c1ccccc1[N+](=O)[O-] [Nifedipine]
- fe (fraction of renal excretion) ([5]; in vivo): 0 [16]

SMILES: COc1ccc2c3c([nH]c2c1)[C@H](CC(C)C)N1C(=O)[C@H](CCC(=O)OC(C)(C)C)NC(=O)[C@@H]1C3 [Ko-143]
- Effect of inhibitor on the efflux of rosuvastatin (Caco-2 cells [8]): strongly reduced
- Effect of inhibitor on the efflux of rosuvastatin [9]: strongly reduced

SMILES: CCOC(=O)C1=C(C)NC(C)=C(C(=O)OC)C1c1cccc(Cl)c1Cl (centres unmarked) [Felodipine]
- recovery at 24 h, 10 µM [4, 13]: 47%

SMILES: CCc1c2c(nc3ccc(OC(=O)N4CCC(N5CCCCC5)CC4)cc13)-c1cc3c(c(=O)n1C2)COC(=O)[C@]3(O)CC [Irinotecan]
- recovery at 24 h, 10 µM [4, 13]: 62%

SMILES: CCOc1ccc(NC(C)=O)cc1 [Phenacetin]
- Intracellular Metabolite (% of Total) (CYP1A2 [11]): BLQ
- Enzyme Activities Mean/SD (CYP1A2 [11]; human): 123.1/4.8 pmol/h/cm^2
- Intracellular Metabolite (% of Total) (CYP1A2 [12]): BLQ
- Enzyme Activities Mean/SD (CYP1A2 [12]; human): 17.4/3.0 pmol/h/cm^2
